Structures can show the parent of a compound that is named as a salt. Each block holds one compound with its values, some of them ahead of it.
Assays:
Histamine H3 receptor = Histamine H3 receptor (Homo sapiens, UniProt Q9Y5N1); test: (§1) PDSP Secondary Binding target: HRH3 - Compounds are tested at 10 uM concentration, plate are incubated at room temperature in the dark for 90 minutes. Reaction are stopped by vacuum filtration onto 0.3% polyethyleneimine soaked filter mats using Filtermate harvester. Scintillation cocktail is then melted onto microwave-dried filters on a hot plate and the radio activity is counted in Microbia counter.
Chain of Histamine H3 receptor (Q9Y5N1 whole entry): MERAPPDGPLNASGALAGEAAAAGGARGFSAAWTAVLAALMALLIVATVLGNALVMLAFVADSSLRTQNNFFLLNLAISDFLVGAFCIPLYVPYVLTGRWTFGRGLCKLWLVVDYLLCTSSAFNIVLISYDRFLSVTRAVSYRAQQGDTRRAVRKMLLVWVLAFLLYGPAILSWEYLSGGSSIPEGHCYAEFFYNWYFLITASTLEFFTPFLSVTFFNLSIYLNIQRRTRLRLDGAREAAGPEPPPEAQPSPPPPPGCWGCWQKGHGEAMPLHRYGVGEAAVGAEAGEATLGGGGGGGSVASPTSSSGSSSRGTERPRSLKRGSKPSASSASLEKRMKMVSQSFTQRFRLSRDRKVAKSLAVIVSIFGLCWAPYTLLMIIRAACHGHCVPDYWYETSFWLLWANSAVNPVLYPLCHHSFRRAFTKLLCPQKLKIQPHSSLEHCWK

[1] = molecular target: T1, 5-hydroxytryptamine receptor 3A (Homo sapiens, UniProt P46098); test: as §1, with “HTR3A” for “HRH3”
T1 sequence (P46098 whole entry): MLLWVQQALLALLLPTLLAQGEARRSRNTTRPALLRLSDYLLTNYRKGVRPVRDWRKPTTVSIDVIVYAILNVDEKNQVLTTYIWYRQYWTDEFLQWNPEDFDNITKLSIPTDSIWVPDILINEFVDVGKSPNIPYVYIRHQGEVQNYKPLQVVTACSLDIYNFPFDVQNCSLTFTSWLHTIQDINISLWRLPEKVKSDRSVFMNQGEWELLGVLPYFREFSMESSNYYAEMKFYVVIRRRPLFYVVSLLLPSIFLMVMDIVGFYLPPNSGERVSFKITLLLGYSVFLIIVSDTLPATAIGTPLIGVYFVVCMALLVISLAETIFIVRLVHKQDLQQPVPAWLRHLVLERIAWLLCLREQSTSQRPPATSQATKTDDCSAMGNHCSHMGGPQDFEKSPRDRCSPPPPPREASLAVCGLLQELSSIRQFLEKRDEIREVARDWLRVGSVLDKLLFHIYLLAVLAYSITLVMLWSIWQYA

[2] = molecular target: Beta-2 adrenergic receptor (Homo sapiens, UniProt P07550); test: as §1, with “ADRB2” for “HRH3”
Chain of Beta-2 adrenergic receptor (P07550 whole entry): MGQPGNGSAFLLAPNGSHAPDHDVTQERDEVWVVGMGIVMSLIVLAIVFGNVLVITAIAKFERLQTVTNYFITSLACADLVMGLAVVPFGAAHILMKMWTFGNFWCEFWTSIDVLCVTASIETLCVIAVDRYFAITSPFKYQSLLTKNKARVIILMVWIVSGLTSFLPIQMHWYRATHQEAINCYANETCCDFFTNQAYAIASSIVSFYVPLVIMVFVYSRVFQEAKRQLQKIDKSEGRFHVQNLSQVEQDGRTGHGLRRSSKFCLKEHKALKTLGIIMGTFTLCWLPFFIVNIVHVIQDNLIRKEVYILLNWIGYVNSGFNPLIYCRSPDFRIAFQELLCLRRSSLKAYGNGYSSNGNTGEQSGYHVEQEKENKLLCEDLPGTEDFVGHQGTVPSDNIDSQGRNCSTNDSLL

[3] = molecular target: T2, 5-hydroxytryptamine receptor 1A (Homo sapiens, UniProt P08908); test: as §1, with “HTR1A” for “HRH3”
T2 sequence (P08908 whole entry): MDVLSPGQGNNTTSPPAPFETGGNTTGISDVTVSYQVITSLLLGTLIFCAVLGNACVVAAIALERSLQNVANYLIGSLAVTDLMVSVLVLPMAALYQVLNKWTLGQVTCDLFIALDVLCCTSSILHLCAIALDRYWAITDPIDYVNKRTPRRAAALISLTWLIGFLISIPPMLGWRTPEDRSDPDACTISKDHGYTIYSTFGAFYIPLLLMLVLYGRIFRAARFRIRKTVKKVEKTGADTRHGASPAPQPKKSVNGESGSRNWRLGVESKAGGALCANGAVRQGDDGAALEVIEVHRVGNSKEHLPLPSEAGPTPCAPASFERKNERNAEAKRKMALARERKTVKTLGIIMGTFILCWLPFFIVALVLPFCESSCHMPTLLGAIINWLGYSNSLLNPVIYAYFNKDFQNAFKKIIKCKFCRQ

Translocator protein = Translocator protein (Homo sapiens, UniProt P30536); test: as §1, with “TSPO” for “HRH3”
Chain of Translocator protein (P30536 whole entry): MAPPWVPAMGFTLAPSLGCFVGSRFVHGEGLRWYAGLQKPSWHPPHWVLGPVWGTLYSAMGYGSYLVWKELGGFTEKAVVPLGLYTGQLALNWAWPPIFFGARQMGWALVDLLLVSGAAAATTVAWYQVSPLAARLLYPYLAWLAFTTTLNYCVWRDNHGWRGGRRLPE

[4] = molecular target: Kappa-type opioid receptor (Homo sapiens, UniProt P41145); test: as §1, with “OPRK1” for “HRH3”
Chain of Kappa-type opioid receptor (P41145 whole entry): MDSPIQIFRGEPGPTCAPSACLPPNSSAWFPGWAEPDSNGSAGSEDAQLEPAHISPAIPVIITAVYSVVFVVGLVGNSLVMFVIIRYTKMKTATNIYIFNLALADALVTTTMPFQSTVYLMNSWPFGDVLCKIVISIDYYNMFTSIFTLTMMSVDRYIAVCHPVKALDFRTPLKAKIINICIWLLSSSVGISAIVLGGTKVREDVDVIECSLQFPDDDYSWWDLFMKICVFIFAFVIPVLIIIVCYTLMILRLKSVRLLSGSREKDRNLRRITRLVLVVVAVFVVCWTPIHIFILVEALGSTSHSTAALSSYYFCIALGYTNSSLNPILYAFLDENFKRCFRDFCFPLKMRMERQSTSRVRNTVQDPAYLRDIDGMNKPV

[5] = molecular target: T3, Muscarinic acetylcholine receptor M2 (Homo sapiens, UniProt P08172); test: as §1, with “CHRM2” for “HRH3”
T3 sequence (P08172 whole entry): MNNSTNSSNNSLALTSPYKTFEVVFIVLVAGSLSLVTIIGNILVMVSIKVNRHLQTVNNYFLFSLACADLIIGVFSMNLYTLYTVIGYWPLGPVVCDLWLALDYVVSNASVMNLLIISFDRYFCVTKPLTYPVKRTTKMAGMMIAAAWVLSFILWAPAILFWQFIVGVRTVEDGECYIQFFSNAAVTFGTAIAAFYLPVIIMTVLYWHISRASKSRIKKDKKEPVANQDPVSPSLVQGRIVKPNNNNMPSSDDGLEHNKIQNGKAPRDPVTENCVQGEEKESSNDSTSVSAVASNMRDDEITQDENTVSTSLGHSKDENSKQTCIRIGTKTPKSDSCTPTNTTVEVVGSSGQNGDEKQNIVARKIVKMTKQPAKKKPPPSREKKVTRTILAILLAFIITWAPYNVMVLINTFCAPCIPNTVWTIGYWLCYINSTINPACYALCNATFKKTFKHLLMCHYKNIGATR

Histamine H2 receptor = Histamine H2 receptor (Homo sapiens, UniProt P25021); test: as §1, with “HRH2” for “HRH3”
Chain of Histamine H2 receptor (P25021 whole entry): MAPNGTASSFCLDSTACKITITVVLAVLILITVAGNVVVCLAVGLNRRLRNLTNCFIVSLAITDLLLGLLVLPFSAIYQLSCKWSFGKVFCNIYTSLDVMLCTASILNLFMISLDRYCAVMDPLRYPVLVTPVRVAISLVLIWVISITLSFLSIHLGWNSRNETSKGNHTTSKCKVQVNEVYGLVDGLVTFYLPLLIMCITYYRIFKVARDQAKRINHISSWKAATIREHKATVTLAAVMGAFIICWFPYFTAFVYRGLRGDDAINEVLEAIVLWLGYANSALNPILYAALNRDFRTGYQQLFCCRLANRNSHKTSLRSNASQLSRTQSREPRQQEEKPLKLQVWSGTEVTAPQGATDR

[6] = molecular target: T4, Muscarinic acetylcholine receptor M4 (Homo sapiens, UniProt P08173); test: as §1, with “CHRM4” for “HRH3”
T4 sequence (P08173 whole entry): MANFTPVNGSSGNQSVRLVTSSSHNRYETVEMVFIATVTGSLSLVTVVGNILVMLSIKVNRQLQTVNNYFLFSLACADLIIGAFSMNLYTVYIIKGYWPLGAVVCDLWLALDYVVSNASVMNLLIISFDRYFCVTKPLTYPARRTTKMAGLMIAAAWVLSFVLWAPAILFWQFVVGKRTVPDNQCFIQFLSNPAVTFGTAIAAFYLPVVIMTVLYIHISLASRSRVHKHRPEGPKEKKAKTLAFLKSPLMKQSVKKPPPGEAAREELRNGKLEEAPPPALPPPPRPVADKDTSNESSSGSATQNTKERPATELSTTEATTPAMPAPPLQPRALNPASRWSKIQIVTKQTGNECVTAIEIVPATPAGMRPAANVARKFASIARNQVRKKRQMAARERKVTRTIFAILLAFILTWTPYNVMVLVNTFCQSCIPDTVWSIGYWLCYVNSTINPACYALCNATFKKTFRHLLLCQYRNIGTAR

[7] = molecular target: Beta-3 adrenergic receptor (Homo sapiens, UniProt P13945); test: as §1, with “ADRB3” for “HRH3”
Chain of Beta-3 adrenergic receptor (P13945 whole entry): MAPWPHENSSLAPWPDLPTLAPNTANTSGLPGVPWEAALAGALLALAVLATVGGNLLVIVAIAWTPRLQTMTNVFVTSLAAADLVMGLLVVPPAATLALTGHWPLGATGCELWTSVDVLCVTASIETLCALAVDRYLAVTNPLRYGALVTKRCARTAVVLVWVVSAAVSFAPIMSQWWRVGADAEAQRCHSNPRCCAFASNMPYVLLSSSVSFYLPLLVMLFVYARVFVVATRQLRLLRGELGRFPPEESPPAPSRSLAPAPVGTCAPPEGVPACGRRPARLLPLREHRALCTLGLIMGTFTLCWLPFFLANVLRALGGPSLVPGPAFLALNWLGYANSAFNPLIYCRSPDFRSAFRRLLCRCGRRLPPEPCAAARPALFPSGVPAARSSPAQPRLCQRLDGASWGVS

[8] = molecular target: Beta-1 adrenergic receptor (Homo sapiens, UniProt P08588); test: as §1, with “ADRB1” for “HRH3”
Chain of Beta-1 adrenergic receptor (P08588 whole entry): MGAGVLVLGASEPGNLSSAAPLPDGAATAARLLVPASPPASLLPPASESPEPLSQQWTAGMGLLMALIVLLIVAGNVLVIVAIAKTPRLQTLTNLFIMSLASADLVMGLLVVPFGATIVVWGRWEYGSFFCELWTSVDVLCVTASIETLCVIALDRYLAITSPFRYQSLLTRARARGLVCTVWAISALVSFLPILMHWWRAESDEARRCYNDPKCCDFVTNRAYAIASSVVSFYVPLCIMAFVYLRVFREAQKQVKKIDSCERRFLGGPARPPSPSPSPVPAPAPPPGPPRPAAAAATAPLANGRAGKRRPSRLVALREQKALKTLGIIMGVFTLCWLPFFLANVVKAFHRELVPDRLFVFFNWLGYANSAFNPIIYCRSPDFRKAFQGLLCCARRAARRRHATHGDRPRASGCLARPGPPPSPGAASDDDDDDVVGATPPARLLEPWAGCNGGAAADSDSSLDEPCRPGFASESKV

Compound: COC(=O)C1=C(C)NC(C)=C(C(=O)OCCCN2CCC(c3ccccc3)(c3ccccc3)CC2)[C@H]1c1cccc([N+](=O)[O-])c1 [NIGULDIPINE]
Ki (Translocator protein): 953 nM | Ki [4]: 347 nM | Ki (Histamine H3 receptor): 2140 nM | Ki [3]: 539 nM

Compound: S=C(NCCCc1c[nH]cn1)NCCCN(Cc1ccc(Cl)c(Cl)c1)c1ccc(Br)cn1
Ki [4]: 1110 nM | Ki (Histamine H3 receptor): 104 nM

Compound: CN1C[C@H](C(=O)N[C@]2(C)O[C@@]3(O)[C@@H]4CCCN4C(=O)[C@H](Cc4ccccc4)N3C2=O)C[C@@H]2c3cccc4[nH]cc(c34)C[C@H]21 [DIHYDROERGOTAMINE MESYLATE]
Ki [3]: 39.1 nM

Compound: C[C@H](Cc1cc2c(c(C(N)=O)c1)N(CCCO)CC2)NCCOc1ccccc1OCC(F)(F)F [SILODOSIN]
Ki [2]: 32.8 nM | Ki [3]: 47 nM

Compound: Cc1c(P(=S)(c2ccccc2)c2ccccc2)n2ccccc2[n+]1C/C=C/c1ccccc1
Ki [6]: 854 nM | Ki [4]: 118 nM | Ki (Histamine H2 receptor): 2960 nM | Ki [7]: 2.05 µM | Ki [5]: 805 nM

Compound: CCCCCNC(=N)N/N=C/c1c[nH]c2ccc(OC)cc12 [TEGASEROD MALEATE]
Ki [1]: 5840 nM | Ki [3]: 83.9 nM | Ki [7]: 4.94 µM

Compound: Clc1cccc(COc2cncc(N3CCNCC3)n2)c1
Ki [6]: 444 nM | Ki [8]: 2030 nM | Ki [1]: 63.7 nM | Ki [3]: 7440 nM

Compound: CCc1nn(CCCN2CCN(c3cccc(Cl)c3)CC2)c(=O)n1CCOc1ccccc1 [NEFAZODONE HYDROCHLORIDE]
Ki (Translocator protein): 1990 nM

Compound: CN(C)C(=O)N[C@H]1CC[C@H](CCN2CCN(c3cccc(Cl)c3Cl)CC2)CC1 [CARIPRAZINE HYDROCHLORIDE]
Ki [6]: 779 nM | Ki [8]: 222 nM

Next, values leading:

Ki (Histamine H3 receptor): 2610 nM | Ki [1]: 1530 nM | Ki [2]: 969 nM | Ki [3]: 23.2 nM
Compound: O=c1ccc2ccc(OCCCCN3CCN(c4cccc5sccc45)CC3)cc2[nH]1 [BREXPIPRAZOLE]

Ki [2]: 2490 nM
Compound: N#Cc1ccc2[nH]cc(CCCCN3CCN(c4ccc5oc(C(N)=O)cc5c4)CC3)c2c1 [VILAZODONE HYDROCHLORIDE]

Ki (Histamine H3 receptor): 82.4 nM | Ki [2]: 810 nM | Ki [5]: 204 nM
Compound: CN1CCN(c2ccc(Nc3c4ccccc4nc4ccccc34)cc2)CC1

Ki (Histamine H2 receptor): 215 nM
Compound: Cc1ccc2c(c1)c1c(n2CCc2ccc(C)nc2)CCN(C)C1 [LATREPIRDINE]

Ki (Histamine H3 receptor): 709 nM | Ki [5]: 641 nM
Compound: COc1ccc(NC(=O)c2ccc(-c3ccc(-c4noc(C)n4)cc3C)cc2)cc1OCCN(C)C

Ki (Translocator protein): 4010 nM | Ki [6]: 1960 nM | Ki [7]: 6.31 µM
Compound: CCc1ccc(OCc2ccccc2C(=O)Nc2ccc3nc(C)cc(N)c3c2)cc1

Ki [6]: 1700 nM
Compound: COc1cc(-n2cnc3cc(-c4ccc(Cl)cc4)sc3c2=O)ccc1OCCN1CCCC1

Ki [4]: 1450 nM
Compound: Cc1nc2sccn2c(=O)c1CCN1CCC(=C(c2ccc(F)cc2)c2ccc(F)cc2)CC1 [RITANSERIN]

Ki [4]: 2870 nM | Ki [3]: 518 nM
Compound: O=S1(=O)c2cccc3cccc(c23)N1CCCN1CCN(c2ccc(F)cc2)CC1 [FANANSERIN]

Ki [7]: > 10 µM
Compound: CN1CCCC(n2nc(Cc3ccc(Cl)cc3)c3ccccc3c2=O)CC1 (stereo not drawn) [AZELASTINE HYDROCHLORIDE]
